The test is described as follows: Weight gain slowing test. The note with it: high-fat fed mice, 50 nmol/kg every day for 56 days. In kind it is in vivo, Male C57bl/6 mice. Here is the method:
Male C57bl/6 mice were fed with high-fat feed for 4 weeks. The mice with body weights greater than 30 g were selected for the test, and were randomly divided into 26 groups, 8 mice per group. […] Fasting body weights of each group of mice on Day 1 and Day 56 were tested, and the average body weight change of each group of mice was examined.
Male C57bl/6 mice were fed with high-fat feed for 4 weeks. The mice with body weights greater than 30 g were selected for the test, and were randomly divided into 7 groups, 8 mice per group. […] Fasting body weights of each group of mice on Day 1 and Day 56 were tested, and the average body weight change of each group of mice was examined.
Male C57bl/6 mice were fed with high-fat feed for 4 weeks. The mice with body weights greater than 30 g were selected for the test, and were randomly divided into 8 groups, 8 mice per group. […] Fasting body weights of each group of mice on Day 1 and Day 56 were tested, and the average body weight change of each group of mice was examined.

For Oxyntomodulin [OXM, reference compound], the “fasting body weight, Day 1” value reads like this: (Table 3, in g (unit assumed)) 32.5 ± 0.7; (Table 5, in g (unit assumed)) 31.0 ± 0.8; (Table 7, in g (unit assumed)) 30.5 ± 0.6; (Table 9, in g (unit assumed)) 31.9 ± 0.6; (Table 11, in g (unit assumed)) 32.7. The “fasting body weight, Day 56” value is, setting by setting: (Table 3, in g (unit assumed)) 40.3 ± 1.3; (Table 5, in g (unit assumed)) 41.0 ± 0.7; (Table 7, in g (unit assumed)) 39.6 ± 1.3; (Table 9, in g (unit assumed)) 42.1 ± 1.3; (Table 11) 43.3±.

(Values after US11970523B2 (priority 2018, dated 2024).)
